{"source": "patent US20190320688A1", "about": "“COMPOSITIONS FOR PREVENTING AND RELIEVING HANGOVER & LIVER DAMAGE WHICH OCCUR DUE TO ALCOHOL CONSUMPTION” (priority 2018, published 2019)", "origin": "cited, not measured here", "conditions": "biological activities listed in background table"}
{"substance": "Methylcurcumin", "values": [{"measurement": "Activity", "value": "L. amazonensis"}]}
